Data taken from US11839593B2, “Penetrating topical pain relief compositions and methods of use” (Tech Swerve LLC, priority 2019, dated 2023).

Test: Solubility in DMSO or in DMSO and water
Settings: isolates

For `CCCCCc1cc(O)c2c(c1)OC(C)(C)[C@@H]1CCC(C)=C[C@@H]21` [THC, tetrahydrocannabinol], the “solubility in DMSO” value was “soluble in DMSO”.
